Assays:
elastin genes = test: Expression of elastin genes in normal human fibroblasts (quantitative real-time PCR, standardized to GAPDH); assay type: cell-based; conditions: NB1RGB cells, 0.001 w/v % myo-inositol, 24 hours, purified water = 1.00
Protocol: (§1) The gene expression of collagen and elastin in normal human fibroblasts was examined. Further, it has been known that a decrease in expression level of collagen and elastin due to cellular aging causes wrinkles.
(§2) NB1RGB cells (purchased from Riken BioResource Center), which are normal human fibroblasts, were seeded in a plastic dish at a seeding density of 10000 cells/cm^2 and cultured in Dulbecco's Modified Eagle's medium (DMEM) (manufactured by Sigma-Aldrich Corporation) containing 10% fetal bovine serum for 24 hours. Thereafter, each inositol derivative of Examples 1 to 6 and Comparative Example 1 in a state of being dissolved in purified water was added to the medium at a final concentration of 0.01 w/v % and further cultured for 24 hours. […]
(§3) Next, total RNA was extracted from cells of each group to synthesize cDNA. Next, the expression levels of collagen genes and elastin genes in NB1RGB cells of each group were quantified by performing quantitative real-time PCR using the cDNA as a template. Further, the expression level of glyceraldehyde-3-phospahte dehydrogenase (GAPDH), which is a housekeeping gene, was quantified as an internal standard gene, and the expression levels of collagen genes and elastin genes were respectively standardized based on the expression level of the GAPDH genes in the NB1RGB cells of each group. […]

collagen genes = test: Expression of collagen genes in normal human fibroblasts (quantitative real-time PCR, standardized to GAPDH); assay type: cell-based; conditions: NB1RGB cells, 24 hours
Protocol: as §1, §2, §3

O[C@H]1[C@H](O)[C@@H](O)[C@H](O)[C@@H](O)[C@H]1O [myo-Inositol]
Expression level of genes (relative value) Elastin (elastin genes): 1.23 relative value
Expression level of genes (relative value) Collagen (collagen genes; 0.001 w/v % myo-inositol, standardized to GAPDH, purified water = 1.00): 0.54 relative value
Expression of collagen genes compared to the purified water as a control (in words) (collagen genes; inositol derivatives 0.01 w/v %, myo-inositol 0.001 w/v %): a decrease in expression of collagen genes was shown
